Source: a melting point compilation (Tetko et al.; mined from patent text by program, amines drawn as free bases though some values may be those of a salt)

SMILES	melting point [°C]
CC1(C)C(=O)Nc2ccc(-c3ccc(C#N)s3)cc21	255 to 256
C=C(C)C(=O)OC1c2nccnc2C(=O)N1c1ccc2ccc(Cl)nc2n1 (stereo not drawn)	255
CCOc1cc(C(CC(C)O)N2C(=O)c3cccc(NC(C)=O)c3C2=O)ccc1OC (stereo not drawn)	132 to 134
CCOC(=O)c1cc(=O)c2cc3c(c(CC(O)CO)c2o1)CCCC3 (stereo not drawn)	142 to 144
CN(O)C(=O)c1cccc2c1[nH]c1c3cc(Br)ccc3oc21	174 to 175
CC(C)(C)OC(=O)NC(C(=O)NOC(c1ccccc1)(c1ccccc1)c1ccccc1)C1(O)CCSC1 (stereo not drawn)	220 to 225
Cc1cc2c(cc1-c1cc(C=C3SC(=O)NC3=O)ccc1OC(F)(F)F)N(C)C(=O)CC2(C)C	182 to 184
CC(C)c1cccc(C(C)C)c1NC(=O)[C@H](Cc1ccc(OCc2ccccc2)cc1)NC(=O)OCC1c2ccccc2-c2ccccc21	168 to 171
COc1ccc2c(C(=O)c3ccc(OC4CCCCC4N4CCOCC4)cc3)c(-c3ccc(OCCN4CCCC4)cc3)sc2c1 (stereo not drawn)	50 to 57
COCCOc1ccc(COC(=O)NS(=O)(=O)CCC(C)C)c(Oc2ncc(C(F)(F)F)cc2Cl)c1	122 to 124
CC1CCN(c2scc(C(C)(C)C)c2C#N)C1=O (stereo not drawn)	92 to 94
COC1(c2cc(F)cc(Sc3ccc(NC(C)=O)cc3)c2)CCN(CC(F)(F)F)C1 (stereo not drawn)	127 to 129
Cc1ccc2c(c1)CC(=O)c1cc(CC(=O)O)ccc1O2	154 to 155
CC(C)(O)C1CCC(CNC(=O)c2cccnc2Oc2cccc(C#N)c2)CC1 (stereo not drawn)	129 to 130
OCCCCCCCCCCCc1ccc(O)c(O)c1	92 to 93
Cc1cc(Br)cc(C=O)c1F	48 to 50
NS(=O)(=O)c1cc(C(=O)O)cc(NCc2ccccc2)c1S(=O)c1ccccc1 (stereo not drawn)	234
COc1cccc(C(=O)C=C(SC)SC)c1	119 to 121
Fc1ccccc1-c1nc2c(s1)NCCCC2	115 to 116
COC1=Cc2ccccc2C(=CC(=O)O)c2ccsc21	163 to 167
O=C(OCc1ccccc1)ON1C(=O)CC2(CCN(C(=O)OCc3ccccc3)CC2)C1=O	114
Cc1c(C)c(NC(=O)CC(C)(C)C)c2c(c1C)C(=O)C(C)(C)O2	158 to 159
Cc1cc(-n2ccnc2)c2cccc(OCc3c(Cl)ccc(S(=O)(=O)N4CCC[C@H]4C(=O)NCCCN4CCCC4)c3Cl)c2n1	120
CC(C)(C)C1=CC(O)(c2ccc(F)cc2)C=C(C(C)(C)C)C1=O	123 to 125
COC(=O)c1cccc(-c2ccccc2OC2OC(C)C(O)C(O)C2O)c1 (stereo not drawn)	137 to 140

SMILES	melting point [°C]
Cc1c(C(F)(F)F)cnn(-c2cc(OCC3CCCCC3)c(Cl)cc2F)c1=O	90.2
O=C(O)CCc1cn(Cc2cccc(C(=O)Nc3ccccn3)c2)nc1-c1ccccc1	187 to 188
CC(=O)c1cc(CNS(C)(=O)=O)ccc1O	85 to 86.5
O=C(CBr)c1cc(OCc2ccccc2)c(OCc2ccccc2)c(OCc2ccccc2)c1	112 to 113
CC(CCc1ccccc1)NC1CCC(c2ccc(O)cc2)CC1 (racemic)	44 to 49
COc1ccc(CCCCCCCSc2ccccc2)cc1	58 to 59
CN1C(=O)C2C3C=CC(C3)C2(c2cccc(Cl)c2)C1=O (stereo not drawn)	98 to 100
CC(=O)Nc1c(C(=O)c2cc(-c3ccccc3)no2)[nH]c2cc(Cl)ccc12	209 to 210
O=C(Cl)COc1ccc(Cl)cc1Cl	44 to 45
CC(C)(C)OC(=O)CNc1ccccc1F	70
O=S(=O)(c1ccc(Nc2nccc(Nc3ccc(F)cc3)n2)cc1)N1CCC(C(O)c2ccncc2F)CC1 (stereo not drawn)	140
Cc1ccc(Cc2cnc(CCCOc3cc(CN4CCCCC4)ccn3)[nH]c2=O)cn1	99 to 100
CCOC(=O)C(=CC=C1CCc2ccccc2C1=O)N(C)C	123
Cc1cc(I)ccc1Nc1c(C2=NC(C)(C)CO2)ccc(F)c1F	104
CC(C)(OCc1nn(Cc2ccccc2)c2ccccc12)C(=O)NCC(=O)O	157 to 158
CON=C[C@H]1NC(=O)[C@H]1NC(=O)OCc1ccccc1	170 to 171
CC(C)(C)c1cc(NC(=O)c2ccccc2)cc(C(C)(C)C)c1O	209 to 210
COc1cccc(C(O)C(C)(C)NC(=O)Cc2ccc(OC)c(OC)c2)c1 (stereo not drawn)	137 to 138
C#CCON=C(CCC)C1=C(O)CC(c2ccc(C(=O)SC)cc2)CC1=O (stereo not drawn)	95 to 96
N#Cc1c(Cl)cccc1CBr	83
COc1cc(C(=O)O)ccc1S(=O)(=O)n1c(=O)n(C2CCCCC2)c2cc(OC3CCCC3)ccc21	245
CCn1nc(-c2cnc(N)nc2-c2ccccc2)ccc1=O	255 to 256
O=S(=O)(c1ccccc1)N1CCC(C(NCCc2ccccc2)c2ccc(F)cc2)CC1 (stereo not drawn)	115 to 117
CCOC(=O)CSc1c(C(=O)OCC)[nH]c2cc(Cl)cc(Cl)c12	152 to 153
COC(=O)c1ccc2c(c1)c1cc(-c3ccc(C=O)cc3)c(=O)n(C)c1n2C	230

SMILES	melting point [°C]
CN(C)CCCn1c(-c2ccccc2)cc2cc(O)ccc21	130
CN(c1ccccc1)c1ncnc2c(I)cnn12	193
COc1ncccc1C(=O)Nc1ccn2cc(-c3ccccc3)nc2n1	225 to 226
Cc1c(C)c(N2CCN(Cc3ccccc3)CC2)c(C)c2c1OC(C)(C)C2(O)c1ccc(F)nc1 (stereo not drawn)	105 to 109
CC(C)N(C(=O)c1nn(-c2ccc(F)cc2F)c2c1C1CCC2C1)C(C)C (stereo not drawn)	107 to 109
Cc1ccc(C(=O)NC(C)(C)C)c(Nc2ccc3cn[nH]c3c2)n1	107 to 109
CC(C)(N)CNC(=O)Nc1ccccc1	130 to 131
Cn1ncc2c(c1=O)SCCNC2C(=O)Cc1ccccc1 (stereo not drawn)	133
CN(C)Cc1ccc(CSCCNC2=NS(=O)(=O)N=C2N2CCOCC2)o1	122 to 127
COC(=O)Nc1c(C(=O)O)ccc(Cl)c1Cl	155 to 156
COC(=O)Cc1cc2ccc(OC)cc2n(Cc2ccccc2)c1=O	118 to 120
CCOc1cc(N)ccn1	88 to 89
CCOC(=O)C(Cl)=Cc1cc(NC(N)=O)ccc1Cl	209 to 210
CCc1cc(=O)c2cc(C(C)C(=O)O)ccc2o1 (stereo not drawn)	128
CN1CCC(Cn2sc3cc(Cl)ccc3c2=O)CC1	86
CC(C)(C)Nc1cc(Cl)nc(N2CCCC2)n1	148 to 150
N#Cc1cc([N+](=O)[O-])c(N)cc1F	197 to 199
CS(=O)(=O)c1ccc(-c2nn3c4c(oc3c2-c2ccc(F)cc2)COCC4)cc1	200 to 201
CCOC(=O)C1=C(C)NC(C)=C(C(=O)OCC)C1c1ccc(Cl)cc1	151 to 152
O=c1c(CCCc2ccncc2)cc2cccnc2n1-c1ccc2nsnc2c1	194 to 196
COc1cn(-c2cccc(C(F)(F)F)c2)nc(-c2ccnn2-c2ccccc2)c1=O	139 to 141
O=c1[nH]ncc(Cl)c1NCCN1CCN(c2cccc(C(F)(F)F)c2)CC1	220 to 223
N#Cc1cc(C2=Nc3cc(O)c(-c4ccccc4F)cc3NC(=O)C2)ccn1	> 250
COc1ccc(NC(C)=O)c(Sc2ccc(C#N)cc2[N+](=O)[O-])c1	195 to 199
COc1cc(N)c(Cl)cc1C(=O)N[C@H]1CCN(CCNc2nccs2)C[C@H]1OC (relative stereo)	141

SMILES	melting point [°C]
Cc1nn(-c2cc(N)c(Cl)cc2F)c(Cl)c1Br	113 to 116
O=C1c2c(Cl)cccc2-n2cnc(C#Cc3cccc(Cl)c3)c2[C@@H]2CCCN12	207 to 209
O=C(O)c1cccc(-c2ncco2)c1	187 to 188
CCCCC(O)Cc1c(O)c2cccnc2n(-c2ccccc2)c1=O (stereo not drawn)	184 to 186
CCn1c(N)c(-c2ncc[nH]2)c(=O)c2ccc(-c3ccc(CC(=O)NCc4ccncc4)nc3)nc21	120
COc1c2c(c(OC)c(OC)c1OC)CC(CCCCCCCCOC(C)=O)C2	47 to 48
CCCCCC(=O)O[C@H]1C[C@H](O)C=C2C=C[C@H](C)[C@H](CC[C@@H]3C[C@@H](O)CC(=O)O3)[C@H]21	138 to 139
Cc1cc(-n2cnnn2)cc2c1NC(=O)CC2	271 to 272
O=C(Nc1ccccc1S(=O)(=O)NCC1CCCCC1)N[C@@H](Cc1ccc(NC(=O)c2c(Cl)cccc2Cl)cc1)C(=O)O	185
CN1C(=O)N2CCSC2(c2ccccc2)C1=O (stereo not drawn)	100 to 102
Cc1ccc(-c2ccc3cc(C(=O)Nc4ccc(CN(C)C5CCOCC5)cc4)n(C)c3c2)cc1	225 to 226
CC(C)(C)C(=O)OCCOCn1cnc2c(=O)[nH]c(N)nc21	245 to 246
CC(C)(Cc1ccccc1)C(NC(=O)c1ccc(Cl)cc1)Nc1c(Nc2cccnc2)c(=O)c1=O (stereo not drawn)	223 to 224
CCOCCOCCOCCOc1ccc(OCCCCCCCCCCCCOc2ccccc2)cc1N(CC(=O)O)CC(=O)O	58 to 61
CC(C)(C)OC(=O)NC(CO)C(c1ccccc1)c1ccccc1 (stereo not drawn)	95 to 96
NCc1cc(-c2ccc(Cl)cc2)no1	81
CC(=O)OC1CCC2(C)C(=CCC3C2C(OC(C)=O)CC2(C)C3CCC2(O)C(=O)CO)C1 (stereo not drawn)	231 to 233
Cc1cc2c(NC(=S)N3Cc4sccc4CC3CO)cccc2cn1 (racemic)	145
O=C1NCN(c2ccc(F)cc2)C12CCN(CCNC(c1ccc(F)cc1)c1ccc(F)cc1)CC2	193
O=C(O)COc1ccc(C2=CC(=O)CCC2C2CCCC2)c(Cl)c1Cl (stereo not drawn)	206 to 207
Cc1cc(OCc2c(-c3c(Cl)cccc3Cl)noc2C(C)C)cnc1Oc1ccc(C(=O)O)cc1	74 to 76
NC(=O)Cc1c(C(=O)c2ccccc2)[nH]c2cc(Cl)ccc12	234 to 237
O=C1c2c(-c3ccccc3)noc2CCC1CCCN1CCC(n2c(=O)[nH]c3ccccc32)CC1 (stereo not drawn)	212 to 218
